In publication PMC5909127, “Optimization of a “bump-and-hole” approach to allele-selective BET bromodomain inhibition” (Chemical Science, 2018):

What was measured:
BRDT BD2 L/V = BRDT BD2 L/V (Homo sapiens, UniProt Q58F21, L306V); experiment: competitive AlphaLISA; assay type: binding; settings: read-out: AlphaLISA pIC50 Value BRDT BD2 L/V (converted)
BRD3 BD1 L/V [1] = target: T1, BRD3 BD1 L/V (Homo sapiens, UniProt Q15059, L70V); experiment: competitive AlphaLISA; assay type: binding; settings: read-out: AlphaLISA pIC50 Value BRD3 BD1 L/V (converted)
BRD3 BD1 WT [2] = target: T2, BRD3 BD1 WT (Homo sapiens, UniProt Q15059); experiment: ITC; assay type: binding; settings: for Kd: 30°C, read-out: Kd BRD3 BD1 WT
[3] = test system: L/V somatic BET bromodomains; experiment: ITC; settings: for ITC pKd ± SD Δ: L/V minus WT
in vitro [4] = settings: BALB/c, mouse, plasma, pH 7.4
[5] = target: WT somatic BET bromodomains; experiment: ITC; settings: for ITC pKd ± SD WT: mean and SD of all somatic bromodomains
BRD3 BD2 L/V [6] = target: T3, BRD3 BD2 L/V (Homo sapiens, UniProt Q15059, L345V); experiment: competitive AlphaLISA; assay type: binding; settings: read-out: AlphaLISA pIC50 Value BRD3 BD2 L/V (converted)
BRD2 BD1 WT [7] = target: T4, BRD2 BD1 WT (Homo sapiens, UniProt P25440); experiment: ITC; assay type: binding; settings: for Kd: 30°C, read-out: Kd BRD2 BD1 WT
BRD3 BD1 WT [8] = target: T2, BRD3 BD1 WT; experiment: competitive AlphaLISA; assay type: binding; settings: read-out: AlphaLISA pIC50 Value BRD3 BD1 WT (converted)
BRDT BD2 WT = BRDT BD2 WT (Homo sapiens, UniProt Q58F21); experiment: competitive AlphaLISA; assay type: binding; settings: read-out: AlphaLISA pIC50 Value BRDT BD2 WT (converted)
BRD2 BD1 L/V [9] = target: T5, BRD2 BD1 L/V (Homo sapiens, UniProt P25440, L110V); experiment: ITC; assay type: binding; settings: for ΔH BRD2 BD1 L/V / Kd: ITC; for Kd: 30°C, read-out: Kd BRD2 BD1 L/V
in vitro [10] = settings: PAMPA, pH 7.4
BRD2 BD2 WT [11] = target: T6, BRD2 BD2 WT (Homo sapiens, UniProt P25440); experiment: competitive AlphaLISA; assay type: binding; settings: read-out: AlphaLISA pIC50 Value BRD2 BD2 WT (converted)
BRD2 BD1 L/V [12] = target: T5, BRD2 BD1 L/V; experiment: competitive AlphaLISA; assay type: binding; settings: read-out: AlphaLISA pIC50 Value BRD2 BD1 L/V (converted)
BRD3 BD2 WT [13] = target: T7, BRD3 BD2 WT (Homo sapiens, UniProt Q15059); experiment: ITC; assay type: binding; settings: for Kd: 30°C, read-out: Kd BRD3 BD2 WT
[14] = test system: L/V BET bromodomains (BD1 and BD2 of BRD2, BRD3 and BRD4); experiment: competitive AlphaLISA (Bio-JQ1 displacement); assay type: binding, human; settings: for AlphaLISA pIC50 ± SD Δ: L/V minus WT
BRD2 BD2 L/V [15] = target: T8, BRD2 BD2 L/V (Homo sapiens, UniProt P25440, L383V); experiment: ITC; assay type: binding; settings: for ΔH BRD2 BD2 L/V / Kd: ITC; for Kd: 30°C, read-out: Kd BRD2 BD2 L/V
BRD3 BD2 WT [16] = target: T7, BRD3 BD2 WT; experiment: competitive AlphaLISA; assay type: binding; settings: read-out: AlphaLISA pIC50 Value BRD3 BD2 WT (converted)
[17] = target: WT BET bromodomains (BD1 and BD2 of BRD2, BRD3 and BRD4); experiment: competitive AlphaLISA (Bio-JQ1 displacement); assay type: binding, human; settings: mean and SD of all somatic bromodomains; active enantiomer concentration
BRD2 BD2 WT [18] = target: T6, BRD2 BD2 WT; experiment: ITC; assay type: binding; settings: for Kd: 30°C, read-out: Kd BRD2 BD2 WT
BRD3 BD1 L/V [19] = target: T1, BRD3 BD1 L/V; experiment: ITC; assay type: binding; settings: for ΔH BRD3 BD1 L/V / Kd: ITC; for Kd: 30°C, read-out: Kd BRD3 BD1 L/V
BRD3 BD2 L/V [20] = target: T3, BRD3 BD2 L/V; experiment: ITC; assay type: binding; settings: for ΔH BRD3 BD2 L/V / Kd: ITC; for Kd: 30°C, read-out: Kd BRD3 BD2 L/V
BRD4 BD1 WT [21] = target: T9, BRD4 BD1 WT (Homo sapiens, UniProt O60885); experiment: ITC; assay type: binding; settings: ITC, 30°C; read-out: Kd BRD4 BD1 WT
BRD4 BD1 L/V [22] = target: T10, BRD4 BD1 L/V (Homo sapiens, UniProt O60885, L94V); experiment: competitive AlphaLISA; assay type: binding; settings: read-out: AlphaLISA pIC50 Value BRD4 BD1 L/V (converted)
BRD4 BD2 WT [23] = target: T11, BRD4 BD2 WT (Homo sapiens, UniProt O60885); experiment: competitive AlphaLISA; assay type: binding; settings: read-out: AlphaLISA pIC50 Value BRD4 BD2 WT (converted)
BRD4 BD2 L/V [24] = target: T12, BRD4 BD2 L/V (Homo sapiens, UniProt O60885, L387V); experiment: competitive AlphaLISA; assay type: binding; settings: read-out: AlphaLISA pIC50 Value BRD4 BD2 L/V (converted)
BRD2 BD2 L/V [25] = target: T8, BRD2 BD2 L/V; experiment: competitive AlphaLISA; assay type: binding; settings: read-out: AlphaLISA pIC50 Value BRD2 BD2 L/V (converted)
BRD4 BD1 WT [26] = target: T9, BRD4 BD1 WT; experiment: competitive AlphaLISA; assay type: binding; settings: read-out: AlphaLISA pIC50 Value BRD4 BD1 WT (converted)
BRD4 BD2 WT [27] = target: T11, BRD4 BD2 WT; experiment: ITC; assay type: binding; settings: ITC, 30°C; read-out: Kd BRD4 BD2 WT
BRD2 BD1 WT [28] = target: T4, BRD2 BD1 WT; experiment: competitive AlphaLISA; assay type: binding; settings: read-out: AlphaLISA pIC50 Value BRD2 BD1 WT (converted)
BRD4 BD2 L/V [29] = target: T12, BRD4 BD2 L/V; experiment: ITC; assay type: binding
BRD4 BD1 L/V [30] = target: T10, BRD4 BD1 L/V; experiment: ITC; assay type: binding
BRDT BD1 WT = BRDT BD1 WT (Homo sapiens, UniProt Q58F21); experiment: competitive AlphaLISA; assay type: binding; settings: read-out: AlphaLISA pIC50 Value BRDT BD1 WT (converted)

T4 sequence (P25440 71-176): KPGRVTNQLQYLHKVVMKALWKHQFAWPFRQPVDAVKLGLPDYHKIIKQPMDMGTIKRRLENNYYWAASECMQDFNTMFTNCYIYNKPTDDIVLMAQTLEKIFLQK
T8 sequence (P25440 344-455 L383V): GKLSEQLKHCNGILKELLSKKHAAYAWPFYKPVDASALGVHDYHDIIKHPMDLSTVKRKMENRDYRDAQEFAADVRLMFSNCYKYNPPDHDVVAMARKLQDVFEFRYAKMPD
T1 sequence (Q15059 24-144 L70V limits assumed): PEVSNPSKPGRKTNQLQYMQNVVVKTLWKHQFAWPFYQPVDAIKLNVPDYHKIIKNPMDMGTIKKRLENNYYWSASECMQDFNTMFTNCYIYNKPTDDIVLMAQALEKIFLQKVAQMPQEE
T2 sequence (Q15059 24-144): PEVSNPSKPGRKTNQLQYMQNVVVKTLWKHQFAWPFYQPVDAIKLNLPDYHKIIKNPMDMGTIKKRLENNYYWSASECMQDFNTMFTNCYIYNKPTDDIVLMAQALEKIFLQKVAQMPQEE
T7 sequence (Q15059 306-416): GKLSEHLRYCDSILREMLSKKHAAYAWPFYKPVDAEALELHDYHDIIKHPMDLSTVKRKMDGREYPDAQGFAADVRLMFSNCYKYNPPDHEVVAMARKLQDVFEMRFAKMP
T6 sequence (P25440 344-455): as the sequence (P25440 344-455 L383V) above, with V40L counted along it
T3 sequence (Q15059 306-416 L345V limits assumed): as the sequence (Q15059 306-416) above, with L40V counted along it
T5 sequence (P25440 71-176 L110V limits assumed): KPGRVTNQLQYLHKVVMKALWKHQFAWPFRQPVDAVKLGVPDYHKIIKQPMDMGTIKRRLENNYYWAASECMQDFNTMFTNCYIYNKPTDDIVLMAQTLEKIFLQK

SMILES: CCNC(=O)[C@H](C)[C@@H]1N=C(c2ccc(Cl)cc2)c2cc(OC)ccc2-n2c(C)nnc21 (relative stereo) [Compound 16]
- IC50 (BRDT BD2 L/V): 0.398 µM
- IC50 (BRD3 BD1 L/V [1]): 0.1 µM
- ΔH BRD3 BD1 WT (BRD3 BD1 WT [2]; ITC): -8.8 kcal/mol
- N BRD3 BD1 WT (BRD3 BD1 WT [2]; ITC stoichiometry): 0.81
- Kd (BRD3 BD1 WT [2]; ITC): 1.6 µM
- ITC pKd ± SD Δ [3]: 1.3 ± 0.3
- half-life at 50 µM (in vitro [4]): > 3 h
- ITC pKd ± SD WT [5]: 5.6 ± 0.3
- IC50 (BRD3 BD2 L/V [6]): 0.0794 µM
- ΔH BRD2 BD1 WT (BRD2 BD1 WT [7]; ITC): -4.5 kcal/mol
- N BRD2 BD1 WT (BRD2 BD1 WT [7]; ITC stoichiometry): 0.94
- Kd (BRD2 BD1 WT [7]; ITC): 2.2 µM
- IC50 (BRD3 BD1 WT [8]): 2 µM
- IC50 (BRDT BD2 WT): 7.94 µM
- ΔH BRD2 BD1 L/V (BRD2 BD1 L/V [9]): -16.3 kcal/mol
- Kd (BRD2 BD1 L/V [9]): 0.12 µM
- Papp (in vitro [10]): 2.6 ×10⁻⁶ cm/s
- IC50 (BRD2 BD2 WT [11]): 5.01 µM
- IC50 (BRD2 BD1 L/V [12]): 0.398 µM
- ΔH BRD3 BD2 WT (BRD3 BD2 WT [13]; ITC): -6.0 kcal/mol
- N BRD3 BD2 WT (BRD3 BD2 WT [13]; ITC stoichiometry): 0.88
- Kd (BRD3 BD2 WT [13]; ITC): 1.5 µM
- AlphaLISA pIC50 ± SD Δ [14]: 1.4 ± 0.2
- ΔH BRD2 BD2 L/V (BRD2 BD2 L/V [15]): -9.9 kcal/mol
- Kd (BRD2 BD2 L/V [15]): 0.19 µM
- IC50 (BRD3 BD2 WT [16]): 3.98 µM
- AlphaLISA pIC50 ± SD WT [17]: 5.3 ± 0.2
- ΔH BRD2 BD2 WT (BRD2 BD2 WT [18]; ITC): -3.9 kcal/mol
- N BRD2 BD2 WT (BRD2 BD2 WT [18]; ITC stoichiometry): 0.65
- Kd (BRD2 BD2 WT [18]; ITC): 2.4 µM
- ΔH BRD3 BD1 L/V (BRD3 BD1 L/V [19]): -19.0 kcal/mol
- Kd (BRD3 BD1 L/V [19]): 0.06 µM
- ΔH BRD3 BD2 L/V (BRD3 BD2 L/V [20]): -12.9 kcal/mol
- Kd (BRD3 BD2 L/V [20]): 0.13 µM

SMILES: CCNC(=O)[C@H](CC)[C@@H]1N=C(c2ccc(Cl)cc2)c2cc(OC)ccc2-n2c(C)nnc21 (relative stereo) [Compound 17]
- IC50 (BRDT BD2 L/V): 5.01 µM
- IC50 (BRD3 BD1 L/V [1]): 0.501 µM
- Kd (BRD3 BD1 WT [2]; ITC): > 60 µM
- ITC pKd ± SD Δ [3]: >1.8 ± 0.2
- ITC pKd ± SD L/V ([3]; mean and SD of all somatic bromodomains): 6.0 ± 0.2
- Kd (BRD4 BD1 WT [21]): > 60 µM
- half-life at 50 µM (in vitro [4]): > 3 h
- binding to any WT BET bromodomain ([5]; ITC): no detectable binding
- ITC pKd ± SD WT [5]: <4.2
- IC50 (BRD4 BD1 L/V [22]): 2 µM
- IC50 (BRD3 BD2 L/V [6]): 0.794 µM
- Kd (BRD2 BD1 WT [7]; ITC): > 60 µM
- IC50 (BRD3 BD1 WT [8]): 31.6 µM
- IC50 (BRD4 BD2 WT [23]): 63.1 µM
- IC50 (BRDT BD2 WT): 79.4 µM
- IC50 (BRD4 BD2 L/V [24]): 2 µM
- ΔH BRD2 BD1 L/V (BRD2 BD1 L/V [9]): -10.2 kcal/mol
- N BRD2 BD1 L/V (BRD2 BD1 L/V [9]; ITC stoichiometry): 0.97
- Kd (BRD2 BD1 L/V [9]): 0.96 µM
- Papp (in vitro [10]): 4.5 ×10⁻⁶ cm/s
- IC50 (BRD2 BD2 WT [11]): 25.1 µM
- IC50 (BRD2 BD2 L/V [25]): 1.26 µM
- IC50 (BRD4 BD1 WT [26]): 50.1 µM
- IC50 (BRD2 BD1 L/V [12]): 3.16 µM
- Kd (BRD3 BD2 WT [13]; ITC): > 60 µM
- AlphaLISA pIC50 ± SD Δ [14]: 1.5 ± 0.2
- AlphaLISA pIC50 ± SD L/V ([14]; mean and SD of all somatic bromodomains, active enantiomer concentration): 5.9 ± 0.3
- Kd (BRD4 BD2 WT [27]): > 60 µM
- ΔH BRD2 BD2 L/V (BRD2 BD2 L/V [15]): -5.3 kcal/mol
- N BRD2 BD2 L/V (BRD2 BD2 L/V [15]; ITC stoichiometry): 0.94
- Kd (BRD2 BD2 L/V [15]): 1.3 µM
- IC50 (BRD3 BD2 WT [16]): 39.8 µM
- AlphaLISA pIC50 ± SD WT [17]: 4.4 ± 0.1
- Kd (BRD2 BD2 WT [18]; ITC): > 60 µM
- ΔH BRD3 BD1 L/V (BRD3 BD1 L/V [19]): -9.4 kcal/mol
- N BRD3 BD1 L/V (BRD3 BD1 L/V [19]; ITC stoichiometry): 1.07
- Kd (BRD3 BD1 L/V [19]): 0.74 µM
- IC50 (BRD2 BD1 WT [28]): 63.1 µM
- ΔH BRD4 BD2 L/V (BRD4 BD2 L/V [29]; ITC): -3.7 kcal/mol
- N BRD4 BD2 L/V (BRD4 BD2 L/V [29]; ITC stoichiometry): 0.99
- Kd (BRD4 BD2 L/V [29]; ITC, 30°C, read-out: Kd BRD4 BD2 L/V): 1 µM
- ΔH BRD3 BD2 L/V (BRD3 BD2 L/V [20]): -4.7 kcal/mol
- N BRD3 BD2 L/V (BRD3 BD2 L/V [20]; ITC stoichiometry): 0.68
- Kd (BRD3 BD2 L/V [20]): 0.61 ± 0.09 µM
- ΔH BRD4 BD1 L/V (BRD4 BD1 L/V [30]; ITC): -5.9 kcal/mol
- N BRD4 BD1 L/V (BRD4 BD1 L/V [30]; ITC stoichiometry): 0.99
- Kd (BRD4 BD1 L/V [30]; ITC, 30°C, read-out: Kd BRD4 BD1 L/V): 1.6 µM
- IC50 (BRDT BD1 WT): 63.1 µM
